Measurements reported in patent US9409952B2, “Peptide-compound cyclization method” (Chugai Seiyaku Kabushiki Kaisha, priority 2011, dated 2016).
Like-named read-outs stand apart in the source and are kept apart here. Starred links: 1 amine or outer side, 2 acyl side, 3 side chain; linkers in the order of their positions; H or OH if unused. Non-standard residues stand in square brackets, D forms with d. Residues, ends and D or L forms follow the SMILES beside them. *: point of attachment. Phe(4-CF3) = N[C@@H](Cc1ccc(C(F)(F)F)cc1)C(=O)O; NMePhe(3-Cl) = CN[C@@H](Cc1cccc(Cl)c1)C(=O)O; NMeF = CN[C@@H](Cc1ccccc1)C(=O)O; NMeGABA = CN(CCCC(=O)[*:2])[*:1]; NMeI = CC[C@H](C)[C@H](NC)C(=O)O; NMeβAla = CN(CCC(=O)[*:2])[*:1]; Aoc(2) = CCCCCC[C@H](N)C(=O)O; NMeL = CN[C@@H](CC(C)C)C(=O)O; NMeV = CN[C@H](C(=O)O)C(C)C; NMeA = CN[C@@H](C)C(=O)O; dNMeA = CN[C@H](C)C(=O)O; β3hA = C[C@H](N)CC(=O)O; Sar = CNCC(=O)O; tBu = CC(C)(C)*

How the values were obtained:
[1] = Metabolic stability in human hepatic microsome; format: in vitro ADME; settings: microsomes
[2] = PAMPA (parallel artificial membrane permeability assay); format: in vitro ADME; settings: PAMPA
Outline: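 Artificial membrane was 10% (w/v) egg lecithin plus 0.5% (w/v) cholesterol in dodecane on a PVDF filter. A 10 mM DMSO stock was added at 0.5% (v/v) to donor buffer (50 mM MOPSO, pH 6.5, 5.0% glycocholic acid). After 18 h at 37 °C, LC/MS or LC/UV gave donor and acceptor levels for Pe.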

[3] = pH 7.4, human hepatic microsome, NADPH(+), read-out: CL NADPH(+)
[4] = membrane permeation rate (Pe), 50 mM MOPSO buffer pH 6.5 with 5.0% glycocholic acid, 37° C., 18 hours, read-out: iPAMPA Pe

SMILES | microsomal CLint at 1 uM ([1]; human, pH 7.4, CL NADPH(+)) [µL/min/mg] | Papp at 18 hours, 50 µM ([2]; pH 6.5) [×10⁻⁶ cm/s] | microsomal CLint at 1 uM [1, 3] [µL/min/mg] | Papp at 18 hours, 50 µM [2, 4] [×10⁻⁶ cm/s]
CC[C@H](C)[C@H]1C(=O)NCC(=O)N(C)[C@@H](Cc2cccc(Cl)c2)C(=O)N[C@@H]([C@@H](C)O)C(=O)N(C)[C@@H](CC(C)C)C(=O)N[C@@H](CC(C)C)C(=O)N[C@@H](C)CC(=O)N(C)[C@H](C)C(=O)N(C)[C@@H](CC(C)C)C(=O)N[C@@H](Cc2ccccc2)C(=O)N(C)[C@@H](CC(C)C)C(=O)N[C@@H](C(C)C)C(=O)N1C [DP-762] (cyclo(F[NMeL]V[NMeI]G[NMePhe(3-Cl)]T[NMeL]L[β3hA][dNMeA][NMeL])) | 81 | 13 |  | 
CC(C)C[C@@H]1NC(=O)[C@H](CC(C)C)N(C)C(=O)[C@H](C)NC(=O)[C@H](C(C)C)N(C)C(=O)[C@H](Cc2ccccc2)NC(=O)CN(C)C(=O)[C@H]([C@@H](C)O)NC(=O)[C@H](C)N(C)C(=O)[C@H](CC(C)C)N(C)C(=O)[C@@H](C)NC(=O)C[C@H](C)NC1=O [DP-764] (cyclo(A[NMeL]L[β3hA][dA][NMeL][NMeA]T[Sar]F[NMeV])) |  |  | 27 | 5
CC(C)C[C@H]1C(=O)N[C@@H](C)C(=O)N(C)[C@@H](C)C(=O)N[C@@H](C)CC(=O)N(C)[C@@H](C)C(=O)N[C@@H]([C@@H](C)O)C(=O)N(C)CC(=O)N(C)[C@@H](Cc2ccccc2)C(=O)N(C)[C@@H](Cc2ccccc2)C(=O)N(C)[C@@H](C)C(=O)N2CCC[C@H]2C(=O)N1C [DP-765] (cyclo(A[NMeA][β3hA][NMeA]T[Sar][NMeF][NMeF][NMeA]P[NMeL])) | 13 | 3 |  | 
CC(C)C[C@H]1C(=O)N(C)[C@@H](C)C(=O)N(C)[C@@H](C)C(=O)N(C)[C@@H](Cc2ccccc2)C(=O)N[C@@H]([C@@H](C)O)C(=O)N(C)[C@@H](Cc2ccccc2)C(=O)N(C)[C@@H](CC(C)C)C(=O)N2CCC[C@H]2C(=O)N[C@@H](C)CC(=O)N[C@@H](C)C(=O)NCC(=O)N1C [DP-766] (cyclo(AG[NMeL][NMeA][NMeA][NMeF]T[NMeF][NMeL]P[β3hA])) | 54 | 13 |  | 
CC[C@H](C)[C@@H]1NC(=O)[C@H](CC(C)C)N(C)C(=O)[C@H](C(C)C)N(C)C(=O)[C@H](C)NC(=O)[C@H](C)N(C)C(=O)[C@H](Cc2ccccc2)NC(=O)[C@H]([C@@H](C)O)NC(=O)[C@H](CC(C)C)N(C)C(=O)[C@H](CC(C)C)N(C)C(=O)[C@H](C)N(C)C(=O)C[C@H](C)NC1=O [DP-770] (cyclo(A[NMeV][NMeL]I[β3hA][NMeA][NMeL][NMeL]TF[NMeA])) | 95 | 33 |  | 
CC[C@H](C)[C@H]1C(=O)N(C)[C@@H](CC(C)C)C(=O)N[C@@H](C)C(=O)N(C)[C@@H](CC(C)C)C(=O)N(C)[C@@H](Cc2ccccc2)C(=O)N[C@@H]([C@@H](C)O)C(=O)N(C)[C@@H](Cc2ccccc2)C(=O)N(C)[C@@H](CC(C)C)C(=O)N(C)[C@@H](C)C(=O)N[C@@H](C)CC(=O)N[C@H](C(C)C)C(=O)N1C [DP-773] (cyclo(A[NMeL][NMeF]T[NMeF][NMeL][NMeA][β3hA][dV][NMeI][NMeL])) | 17 | 46 |  | 
CCCCCC[C@@H]1NC(=O)[C@H](CC(C)C)N(C)C(=O)[C@@H]2CCCN2C(=O)[C@H](C)N(C)C(=O)[C@H](Cc2ccccc2)N(C)C(=O)[C@H](Cc2ccccc2)N(C)C(=O)CN(C)C(=O)[C@H]([C@@H](C)O)NC(=O)[C@H](C)N(C)C(=O)C[C@H](C)NC(=O)[C@H](C(C)C)N(C)C1=O [DP-774] (cyclo([Aoc(2)][NMeV][β3hA][NMeA]T[Sar][NMeF][NMeF][NMeA]P[NMeL])) | 71 | 26 |  | 
CCCCCC[C@@H]1NC(=O)[C@H](Cc2ccccc2)N(C)C(=O)[C@H](C)N(C)C(=O)C[C@H](C)NC(=O)[C@H](C(C)C)N(C)C(=O)[C@H](Cc2ccccc2)N(C)C(=O)[C@H](COC(C)(C)C)NC(=O)[C@H](C)N(C)C(=O)CN(C)C(=O)[C@H]([C@@H](C)O)NC(=O)[C@H](CC(C)C)N(C)C1=O [DP-775] (cyclo([Aoc(2)][NMeL]T[Sar][NMeA]S(tBu)[NMeF][NMeV][β3hA][NMeA][NMeF])) | 119 | 37 |  | 
CC[C@H](C)[C@@H]1NC(=O)[C@H](CC(C)C)N(C)C(=O)[C@H](CC(C)C)N(C)C(=O)[C@H](C)NC(=O)[C@H](CC(C)C)N(C)C(=O)[C@H](Cc2ccc(C(F)(F)F)cc2)NC(=O)[C@H]([C@@H](C)O)NC(=O)[C@H](CC(C)C)N(C)C(=O)[C@H](CC(C)C)N(C)C(=O)[C@H](C)N(C)C(=O)C[C@H](C)NC1=O [DP-776] (cyclo(A[NMeL][NMeL]I[β3hA][NMeA][NMeL][NMeL]T[Phe(4-CF3)][NMeL])) | 44 | 18 |  | 
CC(C)C[C@H]1C(=O)N(C)[C@@H](CC(C)C)C(=O)N[C@@H]([C@@H](C)O)C(=O)N(C)[C@@H](Cc2ccccc2)C(=O)NCC(=O)N(C)[C@@H](C(C)C)C(=O)N[C@@H](Cc2ccccc2)C(=O)N[C@@H](C)CC(=O)N(C)CCC(=O)N[C@@H](COC(C)(C)C)C(=O)N1C [DP-777] (cyclo(F[β3hA][NMeβAla]S(tBu)[NMeL][NMeL]T[NMeF]G[NMeV])) |  |  | 428 | 39
CC[C@H](C)[C@H]1C(=O)N[C@@H](COC(C)(C)C)C(=O)N[C@@H](C)CC(=O)N(C)[C@@H](C)C(=O)N(C)[C@@H](Cc2ccccc2)C(=O)N(C)CC(=O)N(C)[C@@H](CC(C)C)C(=O)N[C@@H]([C@@H](C)O)C(=O)N(C)[C@@H](C)C(=O)N(C)[C@@H](CC(C)C)C(=O)N1C [DP-779] (cyclo([NMeA][NMeF][Sar][NMeL]T[NMeA][NMeL][NMeI]S(tBu)[β3hA])) | 78 | 37 |  | 

Second part, led by results:

microsomal CLint at 1 uM ([1]; human, pH 7.4, CL NADPH(+)) [µL/min/mg] | Papp at 18 hours, 50 µM ([2]; pH 6.5) [×10⁻⁶ cm/s] | SMILES | microsomal CLint at 1 uM [1, 3] [µL/min/mg] | Papp at 18 hours, 50 µM [2, 4] [×10⁻⁶ cm/s]
15 | 2.5 | CC(C)C[C@H]1C(=O)N(C)[C@@H](C)C(=O)N[C@@H](C)C(=O)N[C@@H](C)CC(=O)N(C)CCC(=O)N(C)[C@@H](Cc2ccccc2)C(=O)N(C)[C@@H](C)C(=O)N[C@@H]([C@@H](C)O)C(=O)N(C)[C@@H](C)C(=O)N[C@@H](Cc2ccccc2)C(=O)N(C)[C@@H](C(C)C)C(=O)N1C [DP-763] (cyclo(A[β3hA][NMeβAla][NMeF][NMeA]T[NMeA]F[NMeV][NMeL][NMeA])) |  | 
34 | 30 | CC[C@H](C)[C@H]1C(=O)N(C)[C@@H](C)C(=O)N(C)[C@@H](Cc2ccccc2)C(=O)N[C@@H]([C@@H](C)O)C(=O)N(C)[C@@H](Cc2ccccc2)C(=O)N(C)[C@@H](CC(C)C)C(=O)N2CCC[C@H]2C(=O)N[C@@H](C)CC(=O)N[C@@H](C)C(=O)NCC(=O)N(C)[C@@H](CC(C)C)C(=O)N1C [DP-767] (cyclo(AG[NMeL][NMeI][NMeA][NMeF]T[NMeF][NMeL]P[β3hA])) |  | 
34 | 25 | CC(C)C[C@H]1C(=O)N2CCC[C@H]2C(=O)N(C)[C@@H](CC(C)C)C(=O)N[C@@H](C)C(=O)N(C)[C@@H](C(C)C)C(=O)N[C@@H](C)CC(=O)N(C)[C@@H](C)C(=O)N[C@@H]([C@@H](C)O)C(=O)N(C)CC(=O)N(C)[C@@H](Cc2ccccc2)C(=O)N(C)[C@@H](Cc2ccccc2)C(=O)N1C [DP-768] (cyclo(A[NMeV][β3hA][NMeA]T[Sar][NMeF][NMeF][NMeL]P[NMeL])) |  | 
78 | 53 | CC[C@H](C)[C@@H]1NC(=O)[C@H](C)N(C)C(=O)[C@H]([C@@H](C)O)NC(=O)[C@H](C(C)C)N(C)C(=O)[C@H](CC(C)C)NC(=O)[C@H](CC(C)C)N(C)C(=O)[C@@H](C)N(C)C(=O)C[C@H](C)NC(=O)[C@H](Cc2ccccc2)NC(=O)[C@H](C)NC(=O)[C@H](Cc2ccccc2)N(C)C1=O [DP-769] (cyclo(AF[β3hA][dNMeA][NMeL]L[NMeV]T[NMeA]I[NMeF])) |  | 
228 | 47 | CC[C@H](C)[C@H]1C(=O)N[C@@H](COC(C)(C)C)C(=O)N(C)[C@@H](Cc2ccccc2)C(=O)N(C)[C@@H](C(C)C)C(=O)N[C@@H](C)CC(=O)N(C)[C@@H](C)C(=O)N(C)[C@@H](Cc2ccccc2)C(=O)N[C@@H](CC(C)C)C(=O)N(C)[C@@H](CC(C)C)C(=O)N[C@@H]([C@@H](C)O)C(=O)N(C)CC(=O)N1C [DP-771] (cyclo(L[NMeL]T[Sar][NMeI]S(tBu)[NMeF][NMeV][β3hA][NMeA][NMeF])) |  | 
139 | 26 | CC[C@H](C)[C@@H]1NC(=O)[C@H](CC(C)C)N(C)C(=O)[C@H](C)NC(=O)CCCN(C)C(=O)C[C@H](C)NC(=O)[C@H]([C@@H](C)O)NC(=O)[C@H](Cc2ccccc2)NC(=O)[C@H](C(C)C)N(C)C(=O)[C@H](C)N(C)C(=O)[C@H](Cc2ccccc2)N(C)C1=O [DP-778] (cyclo(A[NMeL]I[NMeF][NMeA][NMeV]FT[β3hA][NMeGABA])) |  | 
249 | 41 | CC[C@H](C)[C@@H]1NC(=O)[C@H](CC(C)C)N(C)C(=O)[C@H](Cc2ccccc2)N(C)C(=O)[C@@H](C(C)C)NC(=O)C[C@H](C)NC(=O)[C@H](CC(C)C)N(C)C(=O)[C@H](C)N(C)C(=O)[C@H]([C@@H](C)O)NC(=O)[C@H](Cc2ccccc2)N(C)C(=O)[C@H](C)N(C)C1=O [DP-780] (cyclo(I[NMeA][NMeF]T[NMeA][NMeL][β3hA][dV][NMeF][NMeL])) |  | 
142 | 29 | CC[C@H](C)[C@@H]1NC(=O)[C@H](CC(C)C)N(C)C(=O)[C@H](Cc2ccccc2)N(C)C(=O)[C@@H](C(C)C)NC(=O)C[C@H](C)NC(=O)[C@H](CC(C)C)N(C)C(=O)[C@H](C)N(C)C(=O)[C@H]([C@@H](C)O)NC(=O)[C@H](Cc2ccccc2)N(C)C(=O)[C@H](CC(C)C)N(C)C1=O [DP-781] (cyclo(I[NMeL][NMeF]T[NMeA][NMeL][β3hA][dV][NMeF][NMeL])) |  | 
